Results taken from BigSolDB 2.1.

C=C1CC[C@H](O)C/C1=C/C=C1\CCC[C@]2(C)[C@@H]([C@H](C)CCCC(C)C)CC[C@@H]12
solubility (mole fraction)
Conditions	in acetone	in acetonitrile	in ethanol	in ethyl acetate	in methanol	in n-propanol
248.2 K	0.00611	7.61e-05	0.0532	0.0219	0.00204	0.0647
253.2 K	0.00805	9.25e-05	0.0646	0.0287	0.00249	0.0873
258.2 K	0.0106	0.000133	0.0796	0.0366	0.00337	0.111
263.2 K	0.0143	0.00016	0.0965	0.0478	0.0046	0.136
268.2 K	0.0192	0.000252	0.116	0.0639	0.00625	0.163
273.2 K	0.028	0.000311	0.14	0.0883	0.00993	0.193
